Laboratory results reported in patent publication EP0745595A1, “3-(3-Aryloxyphenyl)-1-(substituted methyl)-s-triazine-2,4,6-oxo or thiotrione herbicidal agents” (American Cyanamid Company, priority 1995, dated 1996).

Columns and labels:
Format in all cases: in vivo
[1] = tested on: ORYZA SATIVA, L. TEBONNET; assay: Rice tolerance to post-transplant applications under flooded paddy conditions, ORYSAT (Rice, Tebonnet); conditions: for Herbicidal effect rating, ORYSAT: post-transplant rice, 3-4 weeks after treatment; for ORYSAT: post-transplanted rice
Procedure, shortened: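 Post-transplant paddy test: compound applied 3 d after transplanting to flooded soil (1.5-3 cm water), ~0.063-0.5 kg/ha a.i., 50/50 aq/acetone. Silt loam, 2 × 10-d seedlings/pot. Greenhouse 3-4 wk, visual 0-9 score vs control.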

[2] = tested on: SETARIA VIRIDIS, (L) BEAU; assay: Postemergence herbicidal evaluation, SETVI (Foxtail, Green); set-up: key to SETVI rating / Herbicidal effect rating, SETVI / SETVI: 0-9 visual rating scale vs untreated control
Procedure, shortened: (§1)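 Under usual greenhouse care after spraying, plants were examined four to five weeks on and given a 0–9 score relative to control. Application rate was about 0.125–0.500 kg/ha on ~two-week-old seedlings.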

[3] = tested on: CHENOPODIUM ALBUM, L.; assay: Postemergence herbicidal evaluation, CHEAL (Lambsquarters, Common);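 also: higher means more injury with 8 approaching complete kill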
Procedure, shortened: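 Seedlings of common lambsquarters (Chenopodium album) were raised in jiffy flats for roughly two weeks, then sprayed postemergence through a nozzle at 40 psi with test compound dispersed in 50/50 acetone/water containing 0.5% TWEEN®20 surfactant. Plants were kept on greenhouse benches under standard care and rated visually on a 0-9 scale versus controls.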

[4] = tested on: IPOMOEA SPP.; assay: Postemergence herbicidal evaluation, IPOSS (Morningglory spp.); conditions: for IPOSS, herbicide rating (0-9): rated four to five weeks after treatment, averaged
Procedure, shortened: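 Seedlings of morningglory (Ipomoea spp.) were raised in jiffy flats for roughly two weeks. They were then sprayed postemergence through a nozzle at 40 psi with test compound dispersed in 50/50 acetone/water containing 0.5% TWEEN®20 surfactant. Plants were kept on greenhouse benches under standard care and visually rated 0-9 against controls four to five weeks after treatment.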

[5] = tested on: AMBROSIA ARTEMISIIFOLIA, L.; assay: Postemergence herbicidal evaluation, AMBEL (Ragweed, Common); conditions: for AMBEL, herbicide rating (0-9): rated four to five weeks after treatment, averaged
Procedure, shortened: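 Common ragweed (Ambrosia artemisiifolia) seedlings were raised in jiffy flats for roughly two weeks, then sprayed postemergence through a nozzle at 40 psi with the test compound dispersed in 50/50 acetone/water carrying 0.5% TWEEN®20. The plants were kept on greenhouse benches under conventional care. Four to five weeks later, injury was rated visually on a 0-9 scale, and repeat tests were averaged.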

[6] = tested on: ECHINOCHLOA CRUS-GALLI, (L) BEAU; assay: Postemergence herbicidal evaluation, ECHCG (Barnyardgrass); set-up: key to ECHCG rating / Herbicidal effect rating, ECHCG / ECHCG: 0-9 visual rating scale vs untreated control
Procedure, shortened: as §1

[7] = tested on: TRITICUM AESTIVUM, CV. APOLLO; assay: Postemergence herbicidal evaluation, TRZAWO (Wheat, Winter, CV. APOLLO); conditions: for TRZAWO, herbicide rating (0-9): crop, rated four to five weeks after treatment, averaged
Procedure, shortened: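 Wheat seedlings, raised in jiffy flats for roughly two weeks, were sprayed postemergence with test compound dispersed in a 50/50 acetone/water mixture containing 0.5% TWEEN®20 surfactant, delivered through a nozzle at 40 psi. Plants were then kept on greenhouse benches under conventional care. Four to five weeks after treatment they were rated visually on a 0-9 scale against an untreated control, and ratings from repeated tests were averaged.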

[8] = tested on: ZEA MAYS L.; assay: Postemergence herbicidal evaluation, ZEAMX (Corn, Field);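 also: higher means more injury with 8 approaching complete kill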
Procedure, shortened: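 Corn seedlings were raised in jiffy flats for roughly two weeks, then sprayed postemergence with the test material dispersed in 50/50 acetone/water containing 0.5% TWEEN®20 surfactant, using a nozzle at 40 psi. Plants were kept on greenhouse benches under standard care and visually rated on a 0-9 scale four to five weeks after treatment.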

[9] = tested on: CASSIA OBTUSIFOLIA, L.; assay: Postemergence herbicidal evaluation, CASOB (Sicklepod); set-up: key to CASOB rating / Herbicidal effect rating, CASOB / CASOB: 0-9 visual rating scale vs untreated control; conditions: for CASOB, herbicide rating (0-9): rated four to five weeks after treatment, averaged
Procedure, shortened: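 Visual 0–9 scores reflect stand, vigor, malformation, size, chlorosis and overall appearance relative to control, taken 4–5 weeks after spraying two-week-old seedlings with about 0.125–0.500 kg/ha compound in acetone/water/TWEEN 20.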

[10] = tested on: ABUTILON THEOPHRASTI, MEDIC.; assay: Postemergence herbicidal evaluation, ABUTH (Velvetleaf); conditions: for ABUTH, herbicide rating (0-9): rated four to five weeks after treatment, averaged
Procedure, shortened: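 Velvetleaf (Abutilon theophrasti) seedlings were raised in jiffy flats for about two weeks and then sprayed postemergence. The test compound was dispersed in a 50/50 acetone/water mixture containing 0.5% TWEEN®20 and applied through a nozzle operating at 40 psi. Plants were kept on greenhouse benches and rated 0-9 four to five weeks after treatment.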

[11] = tested on: CHENOPODIUM ALBUM, L.; assay: Preemergence herbicidal evaluation, CHEAL (Lambsquarters, Common); conditions: for CHEAL herbicidal rating: rated four to five weeks after treatment
Procedure, shortened: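 Greenhouse preemergence test; treated soil cups received compound in aqueous acetone (about 0.125 to 0.50 kg/ha) right after sowing and were assessed visually 4-5 weeks later on a 0-9 scale compared with control plants.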

For `COC(=O)Cn1c(=O)n(C)c(=O)n(-c2cc(Oc3c(F)cc(C(F)(F)F)cc3Cl)ccc2[N+](=O)[O-])c1=O` [Compound 16, Methyl 3-{5-[(2-chloro-α,α,α,6-tetrafluoro-p-tolyl)oxy]-2-nitrophenyl}tetrahydro-5-methyl-2,4,6-trioxo-s-triazine-1(2H)-acetate], the “Herbicidal effect rating, ORYSAT” value ([1]; 0.063 kg/ha) was 3.5, the “Herbicidal effect rating, ORYSAT” value ([1]; 0.125 kg/ha) was 5.0 and the “Herbicidal effect rating, ORYSAT” value ([1]; 0.250 kg/ha) was 7.0. For the same compound, the “Herbicidal effect rating, ORYSAT” value ([1]; 0.500 kg/ha) was 6.0, the ORYSAT ([1]; Rate 0.031 kg/ha) was 3.0 and the ORYSAT ([1]; Rate 0.063 kg/ha) was 3.5. For the same compound, the ORYSAT ([1]; Rate 0.125 kg/ha) was 5.0, the ORYSAT ([1]; Rate 0.250 kg/ha) was 7.0 and the SETVI ([2]; Rate 0.008 kg/ha) was 0.0. For the same compound, the SETVI ([2]; Rate 0.016 kg/ha) was 0.0, the SETVI ([2]; Rate 0.031 kg/ha) was 0.0 and the SETVI ([2]; Rate 0.063 kg/ha) was 0.8. For the same compound, the SETVI ([2]; Rate 0.125 kg/ha) was 1.3, the CHEAL ([3]; Rate 0.008 kg/ha) was 0.0 and the CHEAL ([3]; Rate 0.016 kg/ha) was 1.5. For the same compound, the CHEAL ([3]; Rate 0.031 kg/ha) was 3.0, the CHEAL ([3]; Rate 0.063 kg/ha) was 3.7 and the CHEAL ([3]; Rate 0.125 kg/ha) was 6.5. It also gave an IPOSS ([4]; Rate 0.008 kg/ha) of 6.0, an IPOSS ([4]; Rate 0.016 kg/ha) of 7.0 and an IPOSS ([4]; Rate 0.031 kg/ha) of 7.0. For the same compound, the IPOSS ([4]; Rate 0.063 kg/ha) was 8.3, the IPOSS ([4]; Rate 0.125 kg/ha) was 9.0 and the “IPOSS, herbicide rating (0-9)” value ([4]; Rate 0.125 kg/ha) was 9.0. The “IPOSS, herbicide rating (0-9)” value ([4]; Rate 0.250 kg/ha) was 9.0, the “IPOSS, herbicide rating (0-9)” value ([4]; Rate 0.500 kg/ha) was 9.0 and the AMBEL ([5]; Rate 0.008 kg/ha) was 7.0. For the same compound, the AMBEL ([5]; Rate 0.016 kg/ha) was 9.0, the AMBEL ([5]; Rate 0.031 kg/ha) was 9.0 and the AMBEL ([5]; Rate 0.063 kg/ha) was 9.0. The AMBEL ([5]; Rate 0.125 kg/ha) was 9.0, the “AMBEL, herbicide rating (0-9)” value ([5]; Rate 0.125 kg/ha) was 9.0 and the “AMBEL, herbicide rating (0-9)” value ([5]; Rate 0.250 kg/ha) was 9.0. For the same compound, the “AMBEL, herbicide rating (0-9)” value ([5]; Rate 0.500 kg/ha) was 9.0, the ECHCG ([6]; Rate 0.008 kg/ha) was 0.0 and the ECHCG ([6]; Rate 0.016 kg/ha) was 0.5. It also gave an ECHCG ([6]; Rate 0.031 kg/ha) of 0.7, an ECHCG ([6]; Rate 0.063 kg/ha) of 1.7 and an ECHCG ([6]; Rate 0.125 kg/ha) of 3.7. The TRZAWO ([7]; Rate 0.008 kg/ha) was 4.5, the TRZAWO ([7]; Rate 0.016 kg/ha) was 4.7 and the TRZAWO ([7]; Rate 0.031 kg/ha) was 6.4. For the same compound, the TRZAWO ([7]; Rate 0.063 kg/ha) was 7.4, the TRZAWO ([7]; Rate 0.125 kg/ha) was 8.4 and the “TRZAWO, herbicide rating (0-9)” value ([7]; Rate 0.125 kg/ha) was 8.4. For the same compound, the “TRZAWO, herbicide rating (0-9)” value ([7]; Rate 0.250 kg/ha) was 8.4, the “TRZAWO, herbicide rating (0-9)” value ([7]; Rate 0.500 kg/ha) was 8.4 and the ZEAMX ([8]; Rate 0.008 kg/ha) was 2.0. For the same compound, the ZEAMX ([8]; Rate 0.016 kg/ha) was 2.4, the ZEAMX ([8]; Rate 0.031 kg/ha) was 3.0 and the ZEAMX ([8]; Rate 0.063 kg/ha) was 3.4. For the same compound, the ZEAMX ([8]; Rate 0.125 kg/ha) was 4.2, the CASOB ([9]; Rate 0.008 kg/ha) was 5.5 and the CASOB ([9]; Rate 0.016 kg/ha) was 8.7. The CASOB ([9]; Rate 0.031 kg/ha) was 9.0, the CASOB ([9]; Rate 0.063 kg/ha) was 8.3 and the CASOB ([9]; Rate 0.125 kg/ha) was 9.0. The “CASOB, herbicide rating (0-9)” value ([9]; Rate 0.125 kg/ha) was 9.0, the “CASOB, herbicide rating (0-9)” value ([9]; Rate 0.250 kg/ha) was 9.0 and the “CASOB, herbicide rating (0-9)” value ([9]; Rate 0.500 kg/ha) was 9.0. It also gave an ABUTH ([10]; Rate 0.008 kg/ha) of 5.5, an ABUTH ([10]; Rate 0.016 kg/ha) of 8.3 and an ABUTH ([10]; Rate 0.031 kg/ha) of 8.0. For the same compound, the ABUTH ([10]; Rate 0.063 kg/ha) was 8.3, the ABUTH ([10]; Rate 0.125 kg/ha) was 9.0 and the “ABUTH, herbicide rating (0-9)” value ([10]; Rate 0.125 kg/ha) was 9.0. The “ABUTH, herbicide rating (0-9)” value ([10]; Rate 0.250 kg/ha) was 9.0, the “ABUTH, herbicide rating (0-9)” value ([10]; Rate 0.500 kg/ha) was 9.0 and the CHEAL ([11]; Rate 0.031 kg/ha) was 9.0. The CHEAL ([11]; Rate 0.063 kg/ha) was 9.0, the CHEAL ([11]; Rate 0.125 kg/ha) was 9.0 and the CHEAL herbicidal rating ([11]; Rate 0.125 kg/ha) was 9.0. For the same compound, the CHEAL ([11]; Rate 0.250 kg/ha) was 9.0, the CHEAL herbicidal rating ([11]; Rate 0.250 kg/ha) was 9.0 and the CHEAL herbicidal rating ([11]; Rate 0.500 kg/ha) was 9.0.
